# Results from patent US20130150317A1, “COMPOUNDS FOR THE TREATMENT OF RENAL CELL CARCINOMA” (Myrovlytis Technology Ventures Limited, priority 2010, published 2013).
# Entries after “also recorded” stand apart in the source; their conditions may differ. Read-outs that look alike come from different tables or passages of the source.
# Tests used:
# [1] = test system: 786-O cells with mutant VHL; assay: SRB growth inhibition in 786-O cells with mutant VHL; type: cell-based, human
# Description: (§1) Human renal carcinoma of BHD origin cells UOK-257 (UOK-FLCN^−) and FLCN transfected UOK-257 cells UOK-FLCN^+ (Yang et al Cancer Genet Cytogenet. 2008 Jan. 15; 180(2):100-9) were provided by Dr Marston Linehan and Dr. Laura S Schmidt (Urologic Oncology Branch, Centre for Cancer Research, National Cancer Institute, National Institutes of Health, Bethesda, Md. 20892, USA). UOK-257 is the only RCC cell line that has been derived from a patient with BHD and harbours a germline FLCN frameshift mutation (c.1285dupC) (predicted, in the absence of nonsense mediated mRNA decay, to lead to premature protein truncation (p.His429ProfsX27) (Yang et al., Cancer Genet Cytogenet, 2008 Jan. 15; 180(2):100-9). We are not aware of any sporadic RCC cell lines with homozygous FLCN inactivation. FTC-133 cells were purchased from ECACC (Salisbury, United Kingdom). These cells are a non-RCC cell line derived from human thyroid carcinoma. 786-0 cells were available from the author's lab (Clifford et al., Hum Mol Genet. 2001 May 1; 10(10):1029-38). 786-O is a kidney cancer cell line that harbours an inactivating VHL gene mutation (c.311delG p.G104fs*55). All cell lines were cultured in DMEM with supplement of 10% foetal bovine serum except for FTC-133 cells which were incubated in medium with DMEM and Hens (1:1).
# The sensitivity of the cell lines to drug-induced cell growth inhibition was determined using the sulphorhodamine B assay (SRB) as described by Lu et al., Clin Cancer Res. 2001:7:2114-23. Briefly, adherent exponentially growing cells were seeded into 96-well plates at 3-5×10^3 cells/100 μl/well. After 20-24 h at 37° C., drugs were added at the appropriate drug concentrations to the wells (final DMSO conc. 1%) as indicated in the Results section. […] The absorbance per well was measured at 570 nm on a Victor X3 Multilabel Plate Reader (PerkinElmor, Beaconsfield, United Kingdom).
# Cells were exposed continuously to various concentrations of drugs for 72 hours. GI50 values were determined as the concentrations at 50% growth inhibition from at least three experiments.
# [2] = test system: FTC-133 cells with FLCN expressed at high levels; assay: SRB growth inhibition in FTC-133 cells, high FLCN expression; type: cell-based; details: Homo sapiens, SRB assay
# Description: as §1, with “786-O is a kidney cancer cell line that harbours an inactivating VHL gene mutation (c.311delG p.G104fs*55). All cell lines were cultured in DMEM with supplement of 10% foetal bovine serum except for FTC-133 cells which were incubated in medium with DMEM and Hens (1:1).” left out
# (§2) The sensitivity of the cell lines to drug-induced cell growth inhibition was determined using the sulphorhodamine B assay (SRB) as described by Lu et al., Clin Cancer Res. 2001:7:2114-23. […] The absorbance per well was measured at 570 nm on a Victor X3 Multilabel Plate Reader (PerkinElmor, Beaconsfield, United Kingdom). […]
# [3] = test system: 786-O cells expressing wt VHL; assay: SRB growth inhibition in 786-O cells expressing wt VHL; type: cell-based; details: Homo sapiens, 786-0; SRB assay, 72 hours
# Description: as §1, with “786-O is a kidney cancer cell line that harbours an inactivating VHL gene mutation (c.311delG p.G104fs*55). All cell lines were cultured in DMEM with supplement of 10% foetal bovine serum except for FTC-133 cells which were incubated in medium with DMEM and Hens (1:1).” left out
# as §2
# [4] = test system: caspase3/7 activity in UOK257-FLCN^− and UOK257-FLCN^+ cells; assay: Caspase-Glo 3/7 assay in UOK-257 cells with/without FLCN expression; type: cell-based, human
# Procedure: The ability to induce caspase 3/7 activation after exposure to compounds was measured by Caspase-Glo 3/7 Assay (Promega, Southampton, United Kingdom) according to manufacturer's instruction. The cells were seeded and dosed as described in growth inhibition assay. At the end of incubation, 70 μl of medium was removed and 30 μl of assay reagent was added to the remaining medium. Additional one hour incubation with shaking was carried out at room temperature. The resultant luminescent light was measured in a Victor X3 Multilabel Plate Reader (PerkinElmer, Beaconsfield, United Kingdom). Cell viability after compound exposure was determined by CellTiter-Blue Cell Viability Assay (Promega, Southampton, the United Kingdom) according to manufacturer's instruction. At the end of drug treatment, 20 μl of reagent was added to the medium in 96 wells and the cells were incubated for additional 4 hours. The cell viability was measured by fluorescence with a 570 nm excitation and 590 nm emission set in a Victor X3 Multilabel Plate Reader (PerkinElmer, Beaconsfield, United Kingdom).
# After 48 hrs incubation, with three concentration ranges for each drug, the capase3/7 activity was detected by amount of luminescence for each cell line. The ratio of caspase3/7 activity from UOK257-FLCN^− and UOK257-FLCN^+ were calculated and used as indicators for the ability of the individual compound to induce caspase3/7 activity to FLCN mutant cells.
# These ratios were calculated and used as indicators for the sensitivity to mutant FLCN cells.
# [5] = test system: caspase3 in UOK257-FLCN^− cells; assay: Western blot of cellular caspase3 protein after mithramycin; type: cell-based, human; details: mithramycin 25, 50, 100, 200 nM, 48 hours
# Procedure: Cellular protein expression in UOK Cells with/without FLCN expression in response to drug exposure was determined using total cell extracts at 48 h after treatment, according to standard procedures. Protein concentration was determined using DC protein assay kit according to the manufacturer's instructions (Bio-Rad Laboratories Ltd, Hertfordshire, United Kingdom). Twenty […] of protein from each sample was electrophoresed on 12.5% (w/v) SDS-PAGE gels and electroblotted on to nitrocellulose membrane (Amersham Pharmacia Biotech UK Ltd., Buckinghamshire, United Kingdom). Antibody against FLCN (a gift from Prof. Arnim Pause, Rosalind and Morris Goodman Cancer Centre Montreal, Canada), caspase3 (Cell Signalling Technology, Hertfordshire, United Kingdom), and actin (Sigma-Aldrich Company Ltd., Dorset, United Kingdom) were used. The signal was detected using the enhanced chemiluminescence (ECL+Plus, Amersham) system after addition of anti-mouse IgG-HRP conjugate (DAKO, Ely, United Kingdom).
# [6] = test system: UOK-FLCN^+ cells; details: 4×GI50 mithramycin, no rapamycin
# Procedure: (§3) At the end of the time course, media was carefully removed and cells were fixed in 85% ice-cold ethanol. After removal of ethanol, cells were incubated in the dark at 37° C. for 20 minutes in PBS buffers containing 0.1% Triton X-100, 100 mg/mL RNase A and 10 mg/mL Propidium iodide (PI). The 96-well plates were subsequently scanned using the Acumen eX3 cytometer (TTP LabTech).
# [7] = test system: UOK257-FLCN^− cells; details: 4×GI50 mithramycin alone
# Procedure: as §3
smiles,measurement,setting,value
"CO[C@H](C(=O)[C@@H](O)[C@@H](C)O)C1Cc2cc3cc(OC4CC(OC5CC(O)C(O)C(C)O5)C(O)C(C)O4)c(C)c(O)c3c(O)c2C(=O)[C@H]1OC1CC(OC2CC(OC3CC(C)(O)C(O)C(C)O3)C(O)C(C)O2)C(O)C(C)O1 (stereo partly shown) [mithramycin, Mithramycin]",fold greater growth inhibitory sensitivity in 786-O mutant VHL versus wt VHL,[1],~3 fold
same,GI50,"[1]; Homo sapiens, 786-0, 72 h, read-out: GI50 in 786-O cells with mutant VHL",117 ± 37 nM
same,GI50,[2],35.3 ± 7.3 nM
same,GI50,[2]; 72 hours,35.3 ± 7.3 nM
same,GI50,[3],299 ± 17 nM
same,"induction of caspase 3/7 activity, FLCN-null versus FLCN-wild type cells (in words)",[4],preferentially induced caspase 3/7 activity in UOK257 FLCN-null cells in a dose dependent manner; also recorded: Differential ability to induce caspase 3/7 activity
same,"induction of caspase 3/7 activity, FLCN-null versus FLCN-wild type cells (in words)",[4]; listed as Mithramycin,preferentially induces caspase 3/7 activity in FLCN-null cells in a dose dependent manner
same,active forms of cleaved caspase3 (Western blot),[5],"found at 100 and 200 nM, but not in low concentrations of mithramycin (25 and 50 nM)"
same,increase in S and G2-M phases,[6],15%
same,lengthening of the S and G2-M time,[7],100%
